Where two headings read alike, the source gives them in different places.
Biological target: T1, pyIRS/tRNA pair (Methanosarcina mazei, UniProt Q8PWY1)
T1 construct: expressed in transfected cells
Assay type: cell-based
Conditions: for GFP expression / incorporation in the GFP reporter (in words): GFP assay, HEK293 cells expressing pyIRS/tRNApyl and GFPY40, nnAA at 2 mM; for Positive GFP Assay / Positive GFP: HEK293 cells stably expressing pyIRS (3H7), tRNApyl + GFPY40 reporter, nnAA at 2 mM for 2-3 days; for Positive GFP Assay: Formula VI analogs; for Positive GFP: visual inspection under the microscope
Description: An in vitro cell based assay was developed to assess the compatibility of the pyIRS/tRNA pair and the pyrrolysine analogs of the present invention (nnAAs) by and the efficiency of nnAAs integration into a target protein. For this, HEK293 cells stably expressing pyIRS (3H7) were transiently transfected with plasmids for the expression of tRNApyl and a reporter construct encoding GFPY40 (containing amber codon in place of tyrosine at amino acid residue number 40 (where 1 is the initiator methionine)) using standard transfection protocols. Transfected cells were incubated with nnAAs at 2 mM for 2-3 days GFP production was analyzed qualitatively by visual inspection under the microscope. The GFP fluorescence was quantified by flow cytometry using an Accuri flow cytometer and the geometric mean of the fluorescent cells determined.
This cell based assay was used to determine whether the different nnAAs were suitable substrates for the pyIRS and allowed its translation into a target protein. Cells expressing the PyIRS/tRNApyl pair and containing a vector encoding the GFPY40 reporter gene were incubated in the presence of the nnAAs. nnAAs that are readily utilized by the PyIRS/tRNApyl pair support the translation of the nnAA into the amber site of GFP and allow read-through of the gene producing full length GFP (fluorescent protein). The fluorescence intensity of the cells depends on the efficiency of nnAA incorporation. Thus, nnAAs that are poorly utilized produce weakly fluorescent or non-fluorescing cells. […] Furthermore, the relative expression levels in each sample was compared to those generated by substrates known to be efficiently utilized by pyIRS.

T1 sequence (Q8PWY1 whole entry): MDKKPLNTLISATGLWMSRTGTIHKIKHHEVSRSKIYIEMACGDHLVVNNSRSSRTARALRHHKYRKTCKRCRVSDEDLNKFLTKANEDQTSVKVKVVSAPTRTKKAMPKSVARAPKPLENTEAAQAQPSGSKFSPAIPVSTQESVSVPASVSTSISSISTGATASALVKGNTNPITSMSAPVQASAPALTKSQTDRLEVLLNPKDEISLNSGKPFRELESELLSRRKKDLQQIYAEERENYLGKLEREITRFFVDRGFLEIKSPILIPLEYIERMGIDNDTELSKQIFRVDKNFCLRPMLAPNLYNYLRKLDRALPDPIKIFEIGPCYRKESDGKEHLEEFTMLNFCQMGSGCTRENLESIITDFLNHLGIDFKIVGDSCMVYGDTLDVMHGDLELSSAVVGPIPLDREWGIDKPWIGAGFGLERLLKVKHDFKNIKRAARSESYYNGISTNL

Row | SMILES | GFP expression / incorporation in the GFP reporter (in words) | GFP expression / incorporation in the GFP reporter (in words) (listed as VI.1) | Positive GFP Assay | Positive GFP
1 | [N-]=[N+]=NCCNC(=O)OCCCC[C@H](N)C(=O)O [Formula VI.1, (2S)-2-amino-6-{[(2-azidoethyl)carbamoyl]oxy}hexanoic acid] | high levels of GFP expression | yield green cells | Yes | 
2 | [N-]=[N+]=NCCOC(=O)NCCCC[C@H](N)C(=O)O [Formula V.1, (2S)-2-amino-6-{[(2-azidoethoxy)carbonyl]amino}hexanoic acid] | high levels of GFP expression |  |  | Yes
3 | C=CCOC(=O)NCCCC[C@H](N)C(=O)O [Formula V.3, (2S)-2-amino-6-{[(prop-2-en-1-yloxy)carbonyl]amino}hexanoic acid] | high levels of GFP expression |  |  | Yes
4 | C=CCNC(=O)OCCCC[C@H](N)C(=O)O [Formula VI.3, (2S)-2-amino-6-{[(prop-2-en-1-yl)carbamoyl]oxy}hexanoic acid] | yield green cells |  | Yes | 
5 | C#CCOC(=O)NCCCC[C@H](N)C(=O)O [Formula V.2, (2S)-2-amino-6-{[(prop-2-yn-1-yloxy)carbonyl]amino}hexanoic acid] | high levels of GFP expression |  |  | Yes
